Assay results as given in patent publication US20240165085A1, “ORAL FELINE FEED AND METHODS FOR CONTROLLING TICK INFESTATIONS IN A FELINE” (priority 2021, published 2024).

What was measured:
Dermacentor variabilis [1] = experiment: Example 3: efficacy of afoxolaner and fluralaner liquid formulations per os in cats against Dermacentor variabilis; assay type: in vivo; conditions: treatment group 2, 0.075 mg/kg daily (Days 0-29), liquid formulation
Text: Efficacy of Various Formulations of Isoxazoline Administered per os, i.e. by mouth, to Cats for the Treatment and Control of Dermacentor variabilis.
Methods: A pool of 36 cats are to be preliminarily infested with ˜50 unfed adult D. variabilis ticks in order to produce cats that can suitably sustain a reliable infestation rate, defined as approximately 25% of attached ticks being live at the end of a 48-hour period. The 30 cats with the highest live attached tick counts are to be selected for inclusion in the study. The cats are to be randomly assigned to a single control group and 4 treatment groups with 6 cats per treatment group.
(§1) The cats are to be housed individually during the study period and are to be fed a commercial dry cat food ration with ad libitum access to water.
Each cat in a treatment group (test groups 2-5) is to receive by mouth, preferably in combination with feed, a liquid formulation of isoxazoline. The dosage is to be administered to the cats on each of days 0-29 according to TABLE 2.
(§2) Cats in the control group are not to receive isoxazoline or any other tick control treatment. Each cat in the treatment group is to be offered its daily ration (dry food) and the individual doses of liquid formulation are to be administered after the individual cat has eaten at least 25% of its total daily ration. […]

Dermacentor variabilis [2] = experiment: Example 1: efficacy of isoxazoline per os in cats against Dermacentor variabilis (attached tick comb counts); assay type: in vivo
Text: Efficacy of Isoxazoline Administered per os, i.e. by mouth, to Cats for the Treatment and Control of Dermacentor variabilis.
Methods: A pool of 14 cats are to be preliminarily infested with ˜50 unfed adult D. variabilis ticks in order to produce cats that can suitably sustain a reliable infestation rate, defined as approximately 25% attached ticks being live at the end of a 48-hour period. The 12 cats with the highest live attached tick counts are to be selected for inclusion in the study. The cats are to be divided into a control group and a treatment group with 6 cats in each group.
as §1
(§3) Each cat in the treatment group is to receive by mouth, preferably in combination with feed, a liquid formulation of isoxazoline. The dosage of 1.125 mg/kg is to be administered to the cats on each of days 0-29.
as §2, with “ration. After receiving the dose of isoxazoline, the cats are to be allowed to continue eating. This mimics incorporating the isoxazoline in feed.” for “ration.”

[3] = Example 1: average plasma concentration of isoxazoline in cats, daily oral dosing; assay type: in vivo, cat; conditions: 1.125 mg/kg daily
Experimental: as §3
Using the same study method as described above, blood is to be drawn at 72, 168, 336, 504, 720 and 888 hours after the initial dose of isoxazoline is administered. The average concentration of isoxazoline in the blood can then be determined.

[4] = Example 4: plasma concentration of isoxazoline in cats given medicated feed; assay type: in vivo, cat; conditions: medicated feed dosed at 1.5 mg/kg, five different feed formulations, Day 0 to Day 30
Experimental: Plasma Concentration of Isoxazoline in Cats when Isoxazoline is Administered in a Medicated Feed Dosed at 1.5 mg/kg of the Cat's Weight.
Methods: A pool of 30 cats are to be assigned to 5 groups of 6 cats per group by weight to minimize variation between and within the groups. Each group will be given a different feed formulation containing isoxazoline and the blood level of isoxazoline over the one month period following the single daily dose will be determined.
(§4) The cats are to be housed individually during the study period and are to have ad libitum access to water.
There is to be an initial acclimation period of at least 4 days during which cats are to be transitioned from a standard certified commercial cat feed to an unmedicated version of the daily cat feed. During the acclimation period, the cats are to be allowed 15 minutes/day to consume the feed.
Each medicated feed formulation should be able to deliver approximately 14.1 g/kg of daily feed containing isoxazoline. The amount of medicated feed for each cat is to be determined according to the most recent body weight of the cat prior to the first day (Day 0) of the study. Each medicated feed is to be provided for 15 minutes daily from Day 0 up to and including Day 30. Any uneaten medicated feed remaining after each daily 15 minute timed offering period is to be removed, weighed and the amount recorded. […]

Dermacentor variabilis [5] = experiment: Example 5: efficacy of isoxazoline in medicated feed in cats against Dermacentor variabilis; assay type: in vivo; conditions: 1 mg/kg, days 0-29, by day 14
Experimental: (§5) Efficacy of Isoxazoline when Isoxazoline is Administered in a Medicated Feed for the Treatment and Control of Dermacentor variabilis.
Methods: A pool of 24 cats are to be preliminarily infested with ˜50 unfed adult D. variabilis ticks in order to produce cats that can suitably sustain a reliable infestation rate, defined as approximately 25% of attached ticks being live at the end of a 48-hour period. The 18 cats with the highest live attached tick counts are to be randomly assigned to a single control group (Group 1) and 2 different medicated feed treatment groups (Groups 2 and 3) with 6 cats per group. The remaining 6 cats are to be assigned to a final medicated feed treatment group (Group 4).
as §4
(§6) Each cat in a treatment group (Groups 2-4) is to receive a medicated daily feed from study days 0-29. Each medicated daily feed (Groups 2-4) is to be offered to the cats for 1 hour on each of days 0-29 according to test groups in TABLE 3.
Cats in the control group are not to receive isoxazoline or any other tick control treatment. […]

[6] = Example 5: plasma concentration of isoxazoline in cats given medicated daily feed; assay type: in vivo, cat
Experimental: as §6
Using the same study method as described above, blood is to be drawn at day 0 (day of the first administration of medicated feed) and days 2, 4, 7, 10, 14, 21 and 30 after the initial dose of isoxazoline is administered on day 0. The average concentration of isoxazoline in the blood for different dosage levels can then be determined.

Dermacentor variabilis [7] = experiment: Example 6: efficacy of Mivorilaner in medicated feed in cats against Dermacentor variabilis (FIG. 1); assay type: in vivo; conditions: days 0-29, within 16 days
Experimental: FIG. 1. A graph of the arithmetic mean efficacy for treatment Group 2 (stars) and Group 3 (horizontal hash). Percent efficacy=[AM fleas CONTROL−AM fleas TREATED]/AM fleas CONTROL. Efficacy measured at 2, 16, 27, 30, and 37 days after Initial Treatment, with either 0.75 mg of Mivorilaner/kg (Group 2) or 1.5 mg of Mivorilaner/kg (Group 3).
as §5
Methods: A pool of cats are to be preliminarily infested with ˜100 unfed adult C. felis fleas in order to produce cats that can suitably sustain a reliable infestation rate, defined as approximately 50% retention of live fleas at the end of a 48-hour period. The cats with the highest live flea counts are to be randomly assigned to a single control group (Group 1) and 2 medicated feed treatment groups with 4 cats per group. The cats in groups 2 and 3 will receive Mivorilaner.
as §4
Each cat in a treatment group (Groups 2 and 3) is to receive a medicated daily feed from study days 0-29 according to TABLE 4.
The cats are to be fasted overnight prior to each daily treatment. […]

| SMILES | efficacy (Dermacentor variabilis [1]; by day 14) | efficacy (Dermacentor variabilis [1]; by day 21) | reduction in attached tick counts over the control group (Dermacentor variabilis [2]; 1.125 mg/kg by mouth daily days 0-29, within 7 days) | reduction in attached tick counts over the control group (Dermacentor variabilis [2]; 1.125 mg/kg by mouth daily days 0-29, within 14 days) [%] | average plasma concentration ([3]; day 3) | average plasma concentration ([3]; day 21) | average plasma concentration ([3]; day 37, approximately 8 days after the final dose) | mean plasma concentrations [4] | efficacy (Dermacentor variabilis [5]; treatment group 2, medicated daily feed) | efficacy (Dermacentor variabilis [5]; treatment group 3, medicated daily feed) | plasma concentrations relative to treatment groups 2 and 3 ([6]; treatment group 4, 3 mg/kg daily, versus groups 2 and 3, 1 mg/kg daily) | plasma concentrations, comparison of feed formulations ([6]; treatment groups 2 and 3, 1 mg/kg daily, different feed formulations) | efficacy (percent reduction in attached live and moribund tick counts) (Dermacentor variabilis [7]; treatment group 2, 0.75 mg/kg daily in wet cat food) [%] | efficacy (percent reduction in attached live and moribund tick counts) (Dermacentor variabilis [7]; treatment group 3, 1.5 mg/kg daily in wet cat food) [%] |
| --- | --- | --- | --- | --- | --- | --- | --- | --- | --- | --- | --- | --- | --- | --- |
| O=C(CNC(=O)c1ccc(C2=NOC(c3cc(Cl)cc(C(F)(F)F)c3)(C(F)(F)F)C2)c2ccccc12)NCC(F)(F)F (centres unmarked) [Afoxolaner, 4-{5-[3-chloro-5-(trifluoromethyl)phenyl]-5-(trifluoromethyl)-4,5-dihydroisoxazol-3-yl}-N-{2-oxo-2-[(2,2,2-trifluoroethyl)amino]ethyl}naphthalene-1-carboxamide] | greater than 80% | greater than 90% | – | – | – | – | – | – | – | – | – | – | – | – |
| O=C(CNC(=O)c1sc(C2=NO[C@@](c3cc(Cl)c(F)c(Cl)c3)(C(F)(F)F)C2)c2c1CCC2)NCC(F)F [mivorilaner, 3-[(5S)-5-(3,5-dichloro-4-fluorophenyl)-5-(trifluoromethyl)-4,5-dihydroisoxazol-3-yl]-N-[2-[(2,2-difluoroethyl)amino]-2-oxoethyl]-5,6-dihydro-4H-cyclopenta[c]thiophene-1-carboxamide] | – | – | at least 60% | 90 | about 1011 ng/mL | about 4088 | about 3025 ng/mL | consistent with those achieved in Examples 1 and 2 | greater than 95% | greater than 95% | 2.5-4 times higher | consistent between treatment groups 2 and 3 | 100 | 100 |
